“And” between values parts separate entries of the source, which are not always exact repeats. Identical values can stand only once.
Assays:
[1] = Study VX-222-102 Part A: PK and safety of VX-222 in HCV infected subjects, 3 days; format: in vivo, human
Protocol: (§1) In Part A of Study 102 subjects were randomized to VX-222 or placebo in a 6:2 (VX-222: placebo) allocation ratio to either Cohort 1, Cohort 2, Cohort 3, or Cohort 4. Subjects enrolled in Cohort 1, Cohort 2, and Cohort 3 were administered 250 mg, 500 mf, or 750 mg VX-222 or placebo twice daily (b.i.d.) for 3 days, respectively. Subjects enrolled in Cohort 4 were administered 1,500 mg VX-222 or placebo once daily (qd) for 3 days. Standard of care treatment, Peg-IFN-alpha-2a and RBV was offered to the subjects at the end of dosing in Part A for up to 48 weeks, if judged appropriate by the physician.
Subjects with genotype 1 chronic hepatitis C infection were exposed to multiple doses of VX-222 or placebo at 250 mg (Cohort 1), 500 mg (Cohort 2), or 750 mg (Cohort 3) b.i.d. for 3 days. […] The majority of the reported adverse events were mild in severity and there were no untoward adverse incidences or trends.
(§2) Study Design a& Population Multicenter, randomized, double-blinded, placebo-controlled, dose-ranging study HCV genotype 1-infected patients With no evidence of cirrhosis ALT values<5×ULM Plasma HCV RNA of ≧5 log10 IU/mL at screening 4-arm comparative study (6:2 randomization VX-222: placebo) Enrollment in this dosing—ranging study was sequential 250 mg BID for 3 days 500 mg BID for 3 days 750 mg BID for 3 days 1500 mg QD for 3 days.

genotype 1 HCV = experiment: Study VX-222-102 Part A: HCV RNA analyses (viral load reduction); format: in vivo, Hepatitis C virus
Protocol: as §1
Additional results of Study VX-222-102 are described in FIGS. 2-8: Thirty-two treatment-naïve patients with chronic genotype 1 HCV infection were enrolled in the trial, including six patients in each dose group who received 250 mg of VX-222 BID, 500 mg of VX-222 BID, 750 mg of VX-222 BID, and 1,500 mg of VX-222 QD. Two patients received placebo in each of the four dosing groups, for a total of eight patients who received placebo. Part A of the trial was conducted at 10 centers in the United States, Canada and Argentina. Of the patients enrolled in the trial, 24 patients had genotype 1a HCV infection and eight patients had genotype 1b HCV infection. Six of the patients enrolled in the trial were African American, 25 were Caucasian.
as §2

[2] = PK parameters of VX-222 in Study 101 Part C and Study 102 Part A; format: in vivo, human; settings: 250 to 750 mg b.i.d.
Protocol: In Part C of Study 101, VX-222 was administered as multiple doses of 750 mg b.i.d. to treatment-naïve subjects with chronic hepatitis C for 3 days. In addition, in Part A of Study 102, VX-222 was administered as multiple doses ranging from 250 mg to 750 mg BID and 1500 mg once a day to treatment-naïve subjects with chronic hepatitis C for 3 days. The PK parameters of VX-222 assessed in Study 101 (final data) and Study 102 (preliminary data) are outlined below: […]

[3] = tested on: Huh-7, ET replicon cells (HCV replicon I389luc-ubi-neo/NS3-3'/5.1); experiment: Drug combination luciferase assay (4-day, MacSynergy analysis); format: cell-based, Hepatitis C virus; settings: combination with VX-950, 4 days
Source text: Replicon cell lines Huh-7, ET cells derived from the Huh-7 hepatocarcinoma cell line are obtained from Dr. Ralf Bartenschlager (Bartenschlager, R. Innovation: Hepatitis C virus replicons: potential role for drug development. Nat. Rev. Drug Discov. 2002, 1, 911-916. Krieger, N.; Lohmann, V.; Bartenschlager, R. Enhancement of hepatitis C virus RNA replication by cell culture-adaptive mutations. J. Virol. 2001, 75, 4614-4624. Lohmann, V.; Korner, F.; Koch, J.-O.; Herian, U.; Theilmann, L.; Bartenschlager, R. Replication of subgenomic hepatitis C virus RNAs in a hepatoma cell line. Science. 1999, 285, 110-113.) (Reblikon GmbH, Gau-Odernheim, Germany). […]
Huh-7, ET replicon cells are seeded in white opaque 96-well cell culture microtiter plates at sub-confluent density (3×10^3 cells per well) in a volume of 100 μL media. […] Plates are read for Luciferase counts using a luminometer (Wallac MicroBeta Trilux, Perkin Elmer™, MA, USA). […]

genotype 1 chronic HCV = experiment: ZENITH Phase 2a study: VX-222 in combination with telaprevir (DUAL, QUAD)
[4] = Study VX-222-002: combination treatment with VX-222 and VX-950 in healthy subjects (PK, safety); settings: Treatment Period 3: VX-222 and VX-950 simultaneously for 10 days, preliminary
[5] = 500 mg b.i.d., Day 3, HCV infected subjects

SMILES: CC1CCC(C(=O)N(c2cc(C#CC(C)(C)C)sc2C(=O)O)C2CCC(O)CC2)CC1 (stereo not drawn) [VX-222, 5-(3,3-Dimethylbut-1-ynyl)-3-[(trans-4-hydroxycyclohexyl)-(4-trans methylcyclohexanecarbonyl)amino]thiophene-2-carboxylic acid]
- AUC0-12 hr Geometric Mean [1, 5]: 29848 ng·h/mL
- tmax Median [1, 5]: 2.5 h
- most frequently reported adverse events (at least two patients per dose group) ([1]; blinded, pooled data for placebo or VX-222): diarrhea, headache, nausea, asthenia and fever
- tolerability ([1]; blinded, pooled data for placebo or VX-222, four dose groups): well-tolerated across all four dose groups
- Viral Load Reduction at Day 4, Mean (genotype 1 HCV; 250 mg b.i.d. for 3 days): −3.1
- Viral Load Reduction at Day 4, Mean (genotype 1 HCV; 500 mg b.i.d. for 3 days): −3.4
- Viral Load Reduction at Day 4, Mean (genotype 1 HCV; 750 mg b.i.d. for 3 days): −3.2
- dose proportionality of exposures [2]: increased in an approximately dose proportional manner
- synergy class with VX-950 (MacSynergy) [3]: Moderated synergy (50 uM^2%-100 uM^2%: Moderated synergy)
- volume of synergy with VX-950 (MacSynergy) ([3]; listed as 1): 90 uM^2% and 86 uM^2%
- viral breakthrough rate (genotype 1 chronic HCV; DUAL treatment arms (VX-222 with telaprevir alone), 2-sided 90% confidence interval): > 25%
- patients eligible (undetectable HCV RNA at Weeks 2 and 8) to stop treatment after 12 weeks (genotype 1 chronic HCV; higher VX-222 dose in the QUAD regimen (with telaprevir, peginterferon/ribavirin)): 50%
- severe or SAEs [4]: no reported severe or SAEs

Reference: patent publication US20130273003A1, “Therapies for Treating Hepatitis C Virus Infection” (priority 2012, published 2013)
